ChEMBL document CHEMBL4368907 (J Med Chem, 2019)
Calls of active or inactive are those of the source. No cut-off for these calls is given here. Numbered stars: 1 amine (or outer) side, 2 acyl side, 3 side chain; on linkers, the order of the positions; unused ones are H or OH. Square brackets hold non-standard residues; d marks the D form. Side chains are listed from the residue outwards. Peptide text beside a SMILES is read from it. * marks the point of attachment. Phe(4-CH2SO3H) = N[C@@H](Cc1ccc(CS(=O)(=O)O)cc1)C(=O)O; Ala(indol-2-yl) = N[C@@H](Cc1cc2ccccc2[nH]1)C(=O)O; C20 diacid = O=C(O)CCCCCCCCCCCCCCCCCCC(=O)*; sY = N[C@@H](Cc1ccc(OS(=O)(=O)O)cc1)C(=O)O; C18 diacid = O=C(O)CCCCCCCCCCCCCCCCC(=O)*; NMe1Nal = CN[C@@H](Cc1cccc2ccccc12)C(=O)O; γGlu = O=C(O)[C@H](CCC(=O)[*:2])N[*:1]; 1Nal = N[C@@H](Cc1cccc2ccccc12)C(=O)O; C14 diacid = O=C(O)CCCCCCCCCCCCC(=O)*; NMeF = CN[C@@H](Cc1ccccc1)C(=O)O; NMeD = CN[C@@H](CC(=O)O)C(=O)O; dNMeD = CN[C@H](CC(=O)O)C(=O)O; Nle = CCCC[C@H](N)C(=O)O; X1 = O=C(Cc1ccc(O)cc1)*; AEEA = NCCOCCOCC(=O)O

Key:
[1] = biological target: T1, Cholecystokinin receptor type A (Homo sapiens) (UniProt P32238); experiment: (§1) Displacement of [125I]-CCK-8 from human CCK1R expressed in human 1321N1 cell membranes after 2 hrs by SPA assay
T1 sequence (whole entry): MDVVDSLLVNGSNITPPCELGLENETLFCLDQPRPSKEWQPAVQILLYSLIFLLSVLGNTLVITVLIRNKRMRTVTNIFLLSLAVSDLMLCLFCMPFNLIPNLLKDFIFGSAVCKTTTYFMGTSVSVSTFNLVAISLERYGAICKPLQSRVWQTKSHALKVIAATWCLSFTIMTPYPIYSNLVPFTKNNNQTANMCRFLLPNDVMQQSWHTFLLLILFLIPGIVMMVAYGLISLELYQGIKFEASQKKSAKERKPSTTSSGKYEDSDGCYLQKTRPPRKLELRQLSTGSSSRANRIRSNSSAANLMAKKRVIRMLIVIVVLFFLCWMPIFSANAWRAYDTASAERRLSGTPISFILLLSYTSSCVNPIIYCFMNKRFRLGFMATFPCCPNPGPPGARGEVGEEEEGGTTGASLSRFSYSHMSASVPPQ

[2] = biological target: T2, Gastrin/cholecystokinin type B receptor (Homo sapiens) (UniProt P32239); experiment: (§2) Displacement of [125I]-CCK-8 from human CCK2R expressed in human 1321N1 cell membranes after 2 hrs by SPA assay
T2 sequence (whole entry): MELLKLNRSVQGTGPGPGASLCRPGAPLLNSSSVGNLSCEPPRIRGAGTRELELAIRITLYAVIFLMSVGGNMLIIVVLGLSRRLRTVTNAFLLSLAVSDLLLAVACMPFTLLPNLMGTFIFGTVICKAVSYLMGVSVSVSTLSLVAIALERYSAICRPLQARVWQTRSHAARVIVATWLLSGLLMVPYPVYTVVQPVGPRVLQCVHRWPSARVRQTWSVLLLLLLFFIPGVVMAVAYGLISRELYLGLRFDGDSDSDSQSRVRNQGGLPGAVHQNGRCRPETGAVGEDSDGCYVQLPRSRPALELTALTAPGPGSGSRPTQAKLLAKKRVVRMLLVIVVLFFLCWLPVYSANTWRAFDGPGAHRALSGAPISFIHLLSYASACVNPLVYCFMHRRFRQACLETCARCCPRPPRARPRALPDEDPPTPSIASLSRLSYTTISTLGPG

[3] = biological target: T1, Cholecystokinin receptor type A (Homo sapiens); experiment: (§3) Agonist activity at human CCK1R expressed in human 1321N1 cells assessed as IP1 accumulation after 1 hr by HTRF assay; assay type: functional, cell-based
[4] = biological target: T2, Gastrin/cholecystokinin type B receptor (Homo sapiens); experiment: (§4) Agonist activity at human CCK2R expressed in human 1321N1 cells assessed as IP1 accumulation after 1 hr by HTRF assay; assay type: functional, cell-based
[5] = biological target: T3, Cholecystokinin receptor type A (Homo sapiens, UniProt P32238); experiment: as §1
T3 sequence (P32238 whole entry): T1 sequence (whole entry)

[6] = biological target: T3, Cholecystokinin receptor type A; experiment: as §3; assay type: functional, cell-based
[7] = biological target: T4, Gastrin/cholecystokinin type B receptor (Homo sapiens, UniProt P32239); experiment: as §4; assay type: functional, cell-based
T4 sequence (P32239 whole entry): T2 sequence (whole entry)

[8] = Terminal half life in Ellegaard Gottingen minipig at 5 nmol/kg, iv by LC-MS/MS analysis; assay type: ADME, organism-based, Sus scrofa; settings: pig, in vivo, read-out: beta t1/2 (converted)
[9] = biological target: T4, Gastrin/cholecystokinin type B receptor; experiment: as §2

Compound	pIC50 [1]	pIC50 [2]	pEC50 [3]	pEC50 [4]	IC50 [5]	EC50 [6]	half-life [8]	other results
CCCC[C@H](NC(=O)[C@H](Cc1ccc(OS(=O)(=O)O)cc1)NC(=O)[C@H](CC(=O)O)NC(=O)COCCOCCNC(=O)COCCOCCNC(=O)CC[C@H](NC(=O)CCCCCCCCCCCCCCCCC(=O)O)C(=O)O)C(=O)NCC(=O)N[C@@H](Cc1c[nH]c2ccccc12)C(=O)N[C@@H](Cc1ccccc1)C(=O)N[C@@H](CC(=O)O)C(=O)N[C@@H](Cc1ccccc1)C(N)=O ({C18 diacid-γGlu-AEEA-AEEA}-D[sY][Nle]GWFDF-NH2)	inactive	inactive	inactive	inactive	–	–	–	–
CCCC[C@H](NC(=O)[C@H](Cc1ccc(OS(=O)(=O)O)cc1)NC(=O)[C@H](CC(=O)O)NC(=O)COCCOCCNC(=O)COCCOCCNC(=O)CC[C@H](NC(=O)CCCCCCCCCCCCCCCCC(=O)O)C(=O)O)C(=O)NCC(=O)N[C@@H](Cc1c[nH]c2ccccc12)C(=O)N[C@@H](CCCC)C(=O)N(C)[C@H](CC(=O)O)C(=O)N[C@@H](Cc1cccc2ccccc12)C(N)=O ({C18 diacid-γGlu-AEEA-AEEA}-D[sY][Nle]GW[Nle][dNMeD][1Nal]-NH2)	–	–	–	–	0.0741 nM	0.363 nM	140 h	EC50 [7]: 89.1 nM
CCCC[C@H](NC(=O)[C@H](Cc1c[nH]c2ccccc12)NC(=O)CNC(=O)[C@H](CC(C)C)NC(=O)[C@H](Cc1ccc(CS(=O)(=O)O)cc1)NC(=O)[C@H](CC(=O)O)NC(=O)COCCOCCNC(=O)COCCOCCNC(=O)CC[C@H](NC(=O)CCCCCCCCCCCCC(=O)O)C(=O)O)C(=O)N(C)[C@H](CC(=O)O)C(=O)N(C)[C@@H](Cc1ccccc1)C(N)=O ({C14 diacid-γGlu-AEEA-AEEA}-D[Phe(4-CH2SO3H)]LGW[Nle][dNMeD][NMeF]-NH2)	–	–	–	–	0.155 nM	0.182 nM	2 h	–
CCCC[C@H](NC(=O)[C@H](Cc1c[nH]c2ccccc12)NC(=O)CNC(=O)[C@H](CC(C)C)NC(=O)[C@H](Cc1ccc(CS(=O)(=O)O)cc1)NC(=O)[C@H](CC(=O)O)NC(=O)COCCOCCNC(=O)COCCOCCNC(=O)CC[C@H](NC(=O)CCCCCCCCCCCCCCCCCCC(=O)O)C(=O)O)C(=O)N(C)[C@H](CC(=O)O)C(=O)N(C)[C@@H](Cc1ccccc1)C(N)=O ({C20 diacid-γGlu-AEEA-AEEA}-D[Phe(4-CH2SO3H)]LGW[Nle][dNMeD][NMeF]-NH2)	–	–	–	–	0.0407 nM	0.372 nM	153 h	–
CCCC[C@H](NC(=O)[C@H](Cc1ccc(OS(=O)(=O)O)cc1)NC(=O)[C@H](CC(=O)O)NC(=O)COCCOCCNC(=O)COCCOCCNC(=O)CC[C@H](NC(=O)CCCCCCCCCCCCCCCCC(=O)O)C(=O)O)C(=O)NCC(=O)N[C@@H](Cc1c[nH]c2ccccc12)C(=O)N[C@@H](CC(C)C)C(=O)N[C@@H](CC(=O)O)C(=O)N[C@@H](Cc1ccccc1)C(N)=O	Active	Active	Active	Active	–	–	–	–
CCCC[C@H](NC(=O)[C@H](Cc1c[nH]c2ccccc12)NC(=O)CNC(=O)[C@H](CC(C)C)NC(=O)[C@H](Cc1ccc(OS(=O)(=O)O)cc1)NC(=O)[C@H](CC(=O)O)NC(=O)CCCCCCCCCCCCCCCCC(=O)O)C(=O)N(C)[C@H](CC(=O)O)C(=O)N(C)[C@@H](Cc1ccccc1)C(N)=O	–	–	–	–	0.107 nM	–	2.6 h	–
CCCC[C@H](NC(=O)[C@H](Cc1ccc(CS(=O)(=O)O)cc1)NC(=O)[C@H](CC(=O)O)NC(=O)COCCOCCNC(=O)COCCOCCNC(=O)CC[C@H](NC(=O)CCCCCCCCCCCCCCCCC(=O)O)C(=O)O)C(=O)NCC(=O)N[C@@H](Cc1c[nH]c2ccccc12)C(=O)N[C@@H](CCCC)C(=O)N(C)[C@H](CC(=O)O)C(=O)N(C)[C@@H](Cc1ccccc1)C(=O)O	inactive	inactive	inactive	inactive	–	–	–	–
CCCC[C@H](NC(=O)[C@H](Cc1ccc(OS(=O)(=O)O)cc1)NC(=O)[C@H](CC(=O)O)NC(=O)COCCOCCNC(=O)COCCOCCNC(=O)CC[C@H](NC(=O)CCCCCCCCCCCCCCCCC(=O)O)C(=O)O)C(=O)NCC(=O)N[C@@H](Cc1c[nH]c2ccccc12)C(=O)N[C@@H](CCC(=O)O)C(=O)N[C@@H](CC(=O)O)C(=O)N[C@@H](Cc1ccccc1)C(N)=O ({C18 diacid-γGlu-AEEA-AEEA}-D[sY][Nle]GWEDF-NH2)	inactive	inactive	inactive	inactive	–	–	–	–
CCCC[C@H](NC(=O)[C@H](Cc1c[nH]c2ccccc12)NC(=O)CNC(=O)[C@H](CC(C)C)NC(=O)[C@H](Cc1ccc(OS(=O)(=O)O)cc1)NC(=O)[C@H](CC(=O)O)NC(=O)COCCOCCNC(=O)COCCOCCNC(=O)CC[C@H](NC(=O)CCCCCCCCCCCCCCCCC(=O)O)C(=O)O)C(=O)N(C)[C@H](CC(=O)O)C(=O)N(C)[C@@H](Cc1cccc2ccccc12)C(N)=O ({C18 diacid-γGlu-AEEA-AEEA}-D[sY]LGW[Nle][dNMeD][NMe1Nal]-NH2)	–	–	–	–	–	0.407 nM	147 h	IC50 [9]: 2040 nM; EC50 [7]: 151 nM
CCCC[C@H](NC(=O)[C@H](Cc1ccc(OS(=O)(=O)O)cc1)NC(=O)[C@H](CC(=O)O)NC(=O)COCCOCCNC(=O)COCCOCCNC(=O)CC[C@H](NC(=O)CCCCCCCCCCCCCCCCC(=O)O)C(=O)O)C(=O)NCC(=O)N[C@@H](Cc1c[nH]c2ccccc12)C(=O)N[C@@H](CCCCN)C(=O)N[C@@H](CC(=O)O)C(=O)N[C@@H](Cc1ccccc1)C(N)=O ({C18 diacid-γGlu-AEEA-AEEA}-D[sY][Nle]GWKDF-NH2)	inactive	inactive	inactive	inactive	–	–	–	–
CCCC[C@H](NC(=O)Cc1ccc(O)cc1)C(=O)NCC(=O)N[C@@H](Cc1c[nH]c2ccccc12)C(=O)N[C@@H](CCCC)C(=O)N(C)[C@@H](CC(=O)O)C(=O)N(C)[C@@H](Cc1ccccc1)C(N)=O (X1-[Nle]GW[Nle][NMeD][NMeF]-NH2)	–	–	–	–	42.7 nM	8.51 nM	–	IC50 [9]: > 10000 nM; EC50 [7]: > 1000 nM
CCCC[C@H](NC(=O)[C@H](Cc1c[nH]c2ccccc12)NC(=O)CNC(=O)[C@H](CC(C)C)NC(=O)[C@H](Cc1ccc(OS(=O)(=O)O)cc1)NC(=O)[C@H](CC(=O)O)NC(=O)COCCOCCNC(=O)COCCOCCNC(=O)CC[C@H](NC(=O)CCCCCCCCCCCCCCCCC(=O)O)C(=O)O)C(=O)N1CCC[C@H]1C(=O)N(C)[C@@H](Cc1ccccc1)C(N)=O ({C18 diacid-γGlu-AEEA-AEEA}-D[sY]LGW[Nle]P[NMeF]-NH2)	–	–	–	–	–	–	–	pIC50 [5]: 7.39; pIC50 [9]: 5.27; pEC50 [6]: 6.61; pEC50 [7]: < 6
CCCC[C@H](NC(=O)[C@H](Cc1cc2ccccc2[nH]1)NC(=O)CNC(=O)[C@H](CCCCNC(=O)COCCOCCNC(=O)COCCOCCNC(=O)CC[C@H](NC(=O)CCCCCCCCCCCCCCCCC(=O)O)C(=O)O)NC(=O)[C@H](Cc1ccc(OS(=O)(=O)O)cc1)NC(=O)[C@H](CC(=O)O)NC(C)=O)C(=O)N(C)[C@@H](CC(=O)O)C(=O)N(C)[C@@H](Cc1ccccc1)C(N)=O (Ac-D[sY]K([AEEA-AEEA-γGlu-C18 diacid])G[Ala(indol-2-yl)][Nle][NMeD][NMeF]-NH2)	–	–	–	–	–	–	–	pIC50 [5]: 10.19; pIC50 [9]: 6.24; pEC50 [6]: 9.61; pEC50 [7]: 6.5
CCCC[C@H](NC(=O)[C@H](Cc1c[nH]c2ccccc12)NC(=O)[C@H](CCCCN)NC(=O)[C@H](CCCC)NC(=O)[C@H](Cc1ccc(OS(=O)(=O)O)cc1)NC(=O)[C@H](CC(=O)O)NC(=O)COCCOCCNC(=O)COCCOCCNC(=O)CC[C@H](NC(=O)CCCCCCCCCCCCCCCCC(=O)O)C(=O)O)C(=O)N[C@@H](CC(=O)O)C(=O)N[C@@H](Cc1ccccc1)C(N)=O ({C18 diacid-γGlu-AEEA-AEEA}-D[sY][Nle]KW[Nle]DF-NH2)	–	–	–	–	2570 nM	912 nM	–	IC50 [9]: 13.5 nM; EC50 [7]: 0.832 nM
